In patent US10722480B2, “Agent for controlling cells constituting cancer microenvironment or inflammatory microenvironment” (The University of Tokyo, priority 2015, dated 2020):
Like-named read-outs stand apart in the source and are kept apart here.

Columns and labels:
B16F10 melanoma cells [1] = test: Lung metastasis model (B16F10); format: in vivo, mouse; details: B16F10 via tail vein, Day 9 post tumor administration
Method: To provide a lung metastasis model, 1×10^6 B16F10 melanoma cells were suspended in 200 μL of PBS, and administered from the tail vein of each of wild-type C57BL/6 mice. Administration of the inhibitor was carried out one day before, 30 minutes before, and one day after the tumor administration. To provide a control, DMSO and a pyrimidine fluoride anticancer drug 5-FU were administered. The mice were euthanized on Day 9 post tumor administration, and PBS was perfused from the left ventricle, followed by isolation of lungs. Visible lung metastatic lesions in the left lobe were counted.

LLC tumor cells = test: LDH cytotoxicity assay, LLC tumor cells; format: cell-based
Method: (§1) The cytotoxicity of inhibitors was tested by using LDH Cytotoxicity Detection Kit (TaKaRa) according to the manufacturer's instructions. Briefly, tumor cells were cultured in the presence or absence of an agent (disulfiram or 5FU) for 72 hours, and the culture supernatant was then collected and tested for the concentration of lactate dehydrogenase released from damaged cells. For measurement of cell proliferation, cells were incubated in a plate well together with an inhibitor for 48 hours. During the last 30 minutes, WST-1 (Dojindo Laboratories) was added to the culture liquid, and the absorbance of each well was measured at 450 nm versus 650 nm reference using EnVision (PerkinElmer) to detect the formazan level.

B16F10 melanoma cells [2] = test: LDH cytotoxicity assay, B16F10 melanoma cells; format: cell-based
Method: as §1

B16F10 melanoma cells [3] = test: WST-1 proliferation assay, B16F10 melanoma cells; format: cell-based; details: WST-1, 48 hours
Method: as §1

FROUNT-CCR2 interaction = biological target: T1, FROUNT-CCR2 interaction (Homo sapiens, UniProt Q9BW27); test: HTRF binding inhibition assay, FROUNT-CCR2 interaction
T1 construct: made in house
T1 sequence (Q9BW27 500-656): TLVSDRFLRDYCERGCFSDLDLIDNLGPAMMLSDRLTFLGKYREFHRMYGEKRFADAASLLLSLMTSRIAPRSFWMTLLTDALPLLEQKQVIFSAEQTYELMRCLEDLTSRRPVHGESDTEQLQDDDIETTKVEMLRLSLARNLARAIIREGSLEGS
Method: For the screening, a compound library containing 131,200 kinds of compounds dissolved in DMSO at a concentration of 10 mM or 2 mM (obtained from Open Innovation Center for Drug Discovery, the University of Tokyo) was used. The HTRF assay was carried out using a 384-well low-dose white microplate (Corning Coaster; catalog number 3676). In each well, 4 μL of a solution of 20 nM GST fusion FROUNT protein (a recombinant polypeptide prepared by fusing GST to aa 500-656 of SEQ ID NO:2), and DMSO or test compounds were mixed with a binding buffer (10 mM HEPES [pH 7.4], 0.2 M potassium fluoride, 10 mM NaCl, 0.1% Tween 20, and 0.5% bovine serum albumin [BSA]), and the plate was incubated at room temperature for 30 minutes. […]. After incubation at room temperature for 20 hours, the HTRF signal was measured at emission wavelengths of 620 nm and 665 nm using a multilabel counter EnVision (PerkinElmer).
(§2) By the same HTRF assay as described above, the abilities of disulfiram to inhibit the FROUNT-CCR2 interaction or the FROUNT-CCR5 interaction were investigated. As the CCR5 pro-C peptide, the 16 residues […] (SEQ ID NO:4) in the C-terminal region of CCR5 was used. As a control, the p53-MDM2 interaction (which is inhibited by an MDM-2-specific inhibitor Nutlin), which is also a helix peptide-protein interaction like the interaction between FROUNT and CCR2 or CCR5 but is not related thereto, was used.

p53-MDM2 interaction = p53-MDM2 interaction (Homo sapiens, UniProt Q00987); test: HTRF binding inhibition assay, p53-MDM2 control interaction; details: p53-MDM2 control interaction
Sequence of p53-MDM2 interaction (Q00987 whole entry): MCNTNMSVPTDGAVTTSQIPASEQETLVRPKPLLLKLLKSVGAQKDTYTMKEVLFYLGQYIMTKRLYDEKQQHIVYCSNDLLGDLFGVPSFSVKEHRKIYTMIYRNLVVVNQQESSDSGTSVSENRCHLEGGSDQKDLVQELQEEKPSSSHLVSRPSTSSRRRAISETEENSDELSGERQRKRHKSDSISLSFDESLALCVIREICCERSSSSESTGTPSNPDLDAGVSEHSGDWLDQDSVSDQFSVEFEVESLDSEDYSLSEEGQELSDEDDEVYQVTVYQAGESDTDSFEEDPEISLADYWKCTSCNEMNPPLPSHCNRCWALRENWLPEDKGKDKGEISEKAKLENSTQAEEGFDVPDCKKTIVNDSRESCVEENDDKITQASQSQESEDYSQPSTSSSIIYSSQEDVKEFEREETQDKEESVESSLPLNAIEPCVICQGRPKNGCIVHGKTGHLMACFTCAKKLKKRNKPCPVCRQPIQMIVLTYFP
Source text: as §2

[4] = biological target: T2, aldehyde dehydrogenase (ALDH) (Rattus norvegicus, UniProt P11884); details: Excerpt from Alcohol Clin Exp Res 1996.20.595-; read-out: ALDH inhibition; cited from earlier work
T2 sequence (P11884 20-519): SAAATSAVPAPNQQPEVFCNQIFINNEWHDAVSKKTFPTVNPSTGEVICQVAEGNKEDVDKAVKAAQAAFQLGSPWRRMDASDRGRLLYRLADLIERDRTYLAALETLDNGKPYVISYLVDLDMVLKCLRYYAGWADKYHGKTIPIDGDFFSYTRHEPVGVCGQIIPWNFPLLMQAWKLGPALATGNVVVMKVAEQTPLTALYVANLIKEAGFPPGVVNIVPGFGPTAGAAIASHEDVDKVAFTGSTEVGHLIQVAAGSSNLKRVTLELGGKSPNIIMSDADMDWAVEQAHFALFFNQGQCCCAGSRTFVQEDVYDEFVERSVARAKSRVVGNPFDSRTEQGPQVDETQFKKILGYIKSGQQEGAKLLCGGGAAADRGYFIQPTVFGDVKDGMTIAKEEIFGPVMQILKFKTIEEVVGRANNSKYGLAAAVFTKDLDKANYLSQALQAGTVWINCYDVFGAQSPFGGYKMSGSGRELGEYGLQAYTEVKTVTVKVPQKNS

[5] = HTRF, read-out: FROUNT inhibition (IC50 against FROUNT-CCR2)

Row | Structure (SMILES) | IC50 (FROUNT-CCR2 interaction; [5]) [nM] | IC50 (p53-MDM2 interaction) [nM] | IC50 [4] [nM] | also measured
1 | O=c1[nH]cc(F)c(=O)[nH]1 [5FU] |  |  |  | formation of lung metastatic lesions (B16F10 melanoma cells [1]): did not reduce; cytotoxic activity on LLC tumor cells (LLC tumor cells): completely killed; cytotoxic activity on B16F10 melanoma cells (B16F10 melanoma cells [2]): showed cytotoxic activity; growth-inhibiting action on B16F10 melanoma cells (B16F10 melanoma cells [3]): growth-inhibiting action
2 | CCN(CC)C(=S)S [DDC, sodium diethyldithiocarbamate] |  |  |  | IC50 (FROUNT-CCR2 interaction): 137 nM
3 | CCN(CC)C(=O)S(C)(=O)=O [Me-DTC sulfone] | > 1000 | > 1000 | 530 | 
4 | CCN(CC)C(=O)[S+](C)[O-] (stereo not drawn) [Me-DTC sulfoxide] | > 1000 | > 1000 | 930 | 
5 | CCN(CC)C(=S)[S-].CCN(CC)C(=S)[S-].CCN(CC)C(=S)[S-].[Fe+3] [iron (III) complex of DDC] | 9.2 |  |  | 
